Our source for the viability values is patent US8354111B2, “Stable cell binding chimeric peptides” (Hadasit Medical Research Services and Development Ltd., priority 2008, dated 2013).

No end group written: not given here.

Data set [1] can be described thus: Toxicity assessment, cell survival of endothelial cells. It is filed as cell-based. The settings on record: bovine, endothelial cells (BAEC), increasing concentrations up to 1,000 ng/ml, 48 hours of exposure. How it is done: (§1) The chimeric peptides of the invention and the peptides from which they are derived were found safe, non-toxic, to normal cells such endothelial cells (BAEC; FIG. 9a) and fibroblasts (FF; FIG. 9B). Cells incubated with increasing concentrations (up to 1,000 ng/ml) of the chimeric peptide (black square), the haptide alone (white/empty circle) or the M-tide alone (white/empty square), maintained 100% survival. Cell survival was measured following 48 hours of exposure to the peptides.

The nature of data set [2]: Toxicity assessment, cell survival of fibroblasts. The settings on record: human, fibroblasts (FF), increasing concentrations up to 1,000 ng/ml, 48 hours of exposure. Format: cell-based. How it is done: as §1

By viability is commonly meant the share of living cells, or the viability signal relative to a control. High values mean better survival, low ones a greater loss of cells. Turning to “KTRWYSMKKTTMK [haptide, KTRWYSMKKTTMK, reference compound]”, the viability at 48 h in data set [1] and in data set [2] was 100% each time.
With “KTRWYSMKKTTMKVFQKRLDGSVDFKK [chimeric peptide]”, the viability at 48 h in data set [1] and in data set [2] was 100% in each case.
“VFQKRLDGSVDFKK [M-tide, VFQKR LDGSV DFKK]”: the viability at 48 h in data set [1] and in data set [2] was 100% in each case.
